# Experimental data published in patent publication US12264156B2, “Compounds and pharmaceutical compositions thereof for the treatment of diseases” (GALAPAGOS NV, priority 2018, dated 2025).
# Key:
# SIK3 = target: T1, SIK3 (Homo sapiens, UniProt Q9Y2K2); test: ADP-Glo kinase assay, SIK3; assay type: biochemical; conditions: ADP-Glo SIK kinase assay
# T1 construct: purchased SignalChem S12-11G-100
# Method in brief: (§1)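 Kinase reactions (enzyme-substrate mix plus ATP) ran 120 min at room temperature for each of SIK3 and SIK2. Signal came from ADP-Glo: unconsumed ATP removed (40 min), ADP reconverted and detected by luciferase/luciferin (30 min), with luminescence tracking kinase activity. 10 μM staurosporine and 1% DMSO (final) served as controls.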
# SIK2 = target: T2, SIK2 (Homo sapiens, UniProt Q9H0K1); test: ADP-Glo kinase assay, SIK2; assay type: biochemical; conditions: ADP-Glo SIK kinase assay
# T2 construct: purchased ThermoFisher Scientific PV4792
# Method in brief: as §1
# SIK1 = target: T3, SIK1 (Homo sapiens, UniProt P57059); test: ADP-Glo kinase assay, SIK1; assay type: biochemical; conditions: ADP-Glo SIK kinase assay
# T3 construct: purchased Carna Biosciences 02-131
# Method in brief: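 Wells with 1% DMSO or 10 μM staurosporine (final) define the control window. The kinase reaction with substrate and ATP runs 120 min at RT, followed by ADP-Glo detection: ATP depletion (40 min) and ADP-derived luminescence (30 min).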
# [1] = test system: LPS-induced TNFα in monocyte-derived macrophages (MdM); test: MdM assay: LPS-triggered TNFα (ELISA); assay type: cell-based, human; conditions: Homo sapiens, Macrophage, 20 h, monocyte-derived macrophages, LPS 200 ng/mL, supernatant after 20 h; read-out: TNFα EC50
# Protocol: This assay evaluates illustrative compounds of the invention for their inhibition of LPS-induced TNFα and LPS triggered IL-10 secretion in monocyte-derived macrophages.
# PBMCs are isolated from human blood samples (buffycoats). The buffy coat is aseptically transferred into a 50 mL Falcon tube, and diluted 1/2 in PBS. Falcon tubes are filled with 20 mL Lymphoprep™, on top of which 25 mL of the buffy coat is carefully added, tubes are centrifuged for 35 min at 400 g in temperature controlled centrifuge, without brake, at 25° C. PBMCs are aspirated from the white interface layer between sample and Lymphoprep™. PBMCs are washed five times in PBS.
# PBMCs are centrifuged at 300×g for 10 min and resuspended at a density of 1.0*10^7 cells/80 μL Miltenyi buffer (PBS, pH 7.4, 1% FBS, 2 mM EDTA).
# Starting from this point of the protocol all steps are performed on ice. 20 μL of CD14+ micro-beads are added per 1.0*10^7 cells, the tube is mixed and incubated for 15 min in the fridge at 4° C. Cell suspension volume is adjusted to total volume of 100 mL using Miltenyi buffer, mixed gently and subsequently centrifuged for 10 min at 300×g. Supernantant is discarded and cell pellet is resuspended in 12 mL of Miltenyi buffer.
# Four LS columns are placed in the MACS Separator (magnet) from Miltenyi Biotec, and are prewet by rinsing with 3 mL of MACS buffer per column. Three mL of cell suspension is added onto the column (max 1*10^8 of labelled cells/column), and columns are subsequently washed 3 times with 3 mL of Miltenyi buffer.
# The columns are removed from the magnets, and 5 mL of Miltenyi buffer are added to the column to flush out the CD14+ fraction by pushing the plunger into the column. The flushed fractions are collected in a fresh 50 mL Falcon and volume is adjusted to 30 mL using Miltenyi buffer, cells are centrifuged for 10 min at 300×g. The obtained cell pellet is resuspended in 10 mL RPMI w/o FBS, and cell density is determined using a hematologic analyser (Sysmex XS-500i).
# On day 10, MdMs are triggered and compound is added.
# A compound dilution plate is made in 100% DMSO by 3-fold dilution of 10 mM stock solution. An intermediate dilution plate (10× final concentration) is made by diluting the compound dilution plate 50-fold in RPMI medium.
# Medium is carefully removed from cell plates using multichannel pipette, and replaced by 80 μL fresh medium. 10 μL of the 10× final concentration compound is added to the cells and incubated for 1 hour at 37° C. before addition of trigger. No trigger conditions/trigger conditions are spiked with equal final DMSO concentrations of 0.2% DMSO. 10 μL of 10×LPS (final conc. 200 ng/mL) solution are added to all wells except for the ‘no trigger wells’ where 10 μL medium is added. Supernatant is collected after 2 h (IL-10 determination) and after 20 h (TNFα determination) of LPS triggering.
# The plate is then washed once with PBST (PBS+0.05% Tween20) and once with PBS followed by the addition of 100 μL of blocking buffer (1% Bovine Serum Albumin (BSA)−5% Sucrose) and plates are sealed and incubated for at least 4 h at RT. After washing the plate once with PBST and once with PBS, 40 μL of standard or sample are added (TNFα standard curve is prepared using a 1/2 serial dilution starting from […]; dilutions are made in dilution buffer (PBS+1% BSA)). Plates are washed twice with PBST, and once with PBS, after which 35 μL of the detection antibody is added (final concentration 0.25 μg/mL diluted in dilution buffer) and plates are incubated for at least 2 h at RT. Plates are washed twice with PBST, and once with PBS, where after 35 μL of Strep-HRP conjugate (0.5 μg/mL final concentration diluted in dilution buffer) is added. Plates are incubated in the dark, at RT for at least 45 min but no longer than 1 hour. Plates are washed twice with PBST, and once with PBS.
# T3 sequence (P57059 whole entry): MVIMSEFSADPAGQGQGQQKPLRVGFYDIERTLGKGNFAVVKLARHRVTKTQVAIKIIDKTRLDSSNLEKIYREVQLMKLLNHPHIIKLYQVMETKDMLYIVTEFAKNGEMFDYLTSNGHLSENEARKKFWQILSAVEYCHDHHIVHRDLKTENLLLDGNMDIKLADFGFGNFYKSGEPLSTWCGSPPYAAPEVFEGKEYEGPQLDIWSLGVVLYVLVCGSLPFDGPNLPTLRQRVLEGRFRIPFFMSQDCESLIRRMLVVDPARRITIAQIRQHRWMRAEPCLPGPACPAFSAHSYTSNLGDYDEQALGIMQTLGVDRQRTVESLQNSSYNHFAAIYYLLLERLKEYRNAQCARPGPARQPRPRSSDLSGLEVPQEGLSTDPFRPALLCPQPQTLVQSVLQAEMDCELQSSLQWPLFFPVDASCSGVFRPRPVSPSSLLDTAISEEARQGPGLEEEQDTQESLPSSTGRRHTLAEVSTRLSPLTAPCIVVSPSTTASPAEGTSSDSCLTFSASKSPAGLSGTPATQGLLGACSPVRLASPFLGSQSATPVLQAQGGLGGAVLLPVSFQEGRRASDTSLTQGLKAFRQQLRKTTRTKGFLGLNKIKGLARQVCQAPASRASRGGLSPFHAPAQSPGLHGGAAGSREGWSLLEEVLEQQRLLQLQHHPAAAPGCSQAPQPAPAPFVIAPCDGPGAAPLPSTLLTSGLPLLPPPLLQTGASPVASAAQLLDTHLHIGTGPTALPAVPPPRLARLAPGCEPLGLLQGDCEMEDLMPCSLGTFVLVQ
# T1 sequence (Q9Y2K2 whole entry): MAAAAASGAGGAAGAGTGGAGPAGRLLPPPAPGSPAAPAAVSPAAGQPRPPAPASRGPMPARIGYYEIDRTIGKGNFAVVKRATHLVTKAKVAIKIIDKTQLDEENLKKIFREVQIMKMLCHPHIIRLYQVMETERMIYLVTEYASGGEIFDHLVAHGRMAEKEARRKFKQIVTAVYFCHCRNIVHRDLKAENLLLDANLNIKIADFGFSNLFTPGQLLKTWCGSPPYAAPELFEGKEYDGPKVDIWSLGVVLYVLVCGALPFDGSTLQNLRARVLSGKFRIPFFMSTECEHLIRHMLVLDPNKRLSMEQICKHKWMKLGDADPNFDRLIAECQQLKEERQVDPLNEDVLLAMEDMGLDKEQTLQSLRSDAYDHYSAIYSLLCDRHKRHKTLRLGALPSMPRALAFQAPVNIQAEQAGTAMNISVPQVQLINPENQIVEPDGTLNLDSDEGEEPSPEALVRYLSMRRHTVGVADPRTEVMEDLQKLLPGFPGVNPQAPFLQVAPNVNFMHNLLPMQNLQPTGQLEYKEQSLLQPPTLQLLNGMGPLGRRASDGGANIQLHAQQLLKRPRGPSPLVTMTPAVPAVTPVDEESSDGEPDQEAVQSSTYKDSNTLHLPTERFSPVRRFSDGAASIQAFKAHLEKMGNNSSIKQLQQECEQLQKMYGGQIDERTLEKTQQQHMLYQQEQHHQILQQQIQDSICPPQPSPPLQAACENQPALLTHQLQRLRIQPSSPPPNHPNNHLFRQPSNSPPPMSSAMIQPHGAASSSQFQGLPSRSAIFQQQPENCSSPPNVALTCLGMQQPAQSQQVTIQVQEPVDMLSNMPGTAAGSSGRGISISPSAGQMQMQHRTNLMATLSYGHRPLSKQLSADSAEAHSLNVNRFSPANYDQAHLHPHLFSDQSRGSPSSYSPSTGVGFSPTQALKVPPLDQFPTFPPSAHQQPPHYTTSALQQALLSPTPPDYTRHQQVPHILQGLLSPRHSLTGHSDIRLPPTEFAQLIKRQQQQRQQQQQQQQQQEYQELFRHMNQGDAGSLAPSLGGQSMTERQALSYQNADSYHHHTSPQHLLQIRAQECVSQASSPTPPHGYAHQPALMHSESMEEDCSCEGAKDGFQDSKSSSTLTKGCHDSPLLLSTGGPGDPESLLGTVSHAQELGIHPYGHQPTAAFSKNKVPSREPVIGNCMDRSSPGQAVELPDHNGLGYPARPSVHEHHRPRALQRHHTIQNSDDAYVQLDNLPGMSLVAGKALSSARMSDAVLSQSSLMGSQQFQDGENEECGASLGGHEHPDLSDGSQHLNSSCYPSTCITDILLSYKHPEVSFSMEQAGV
# T2 sequence (Q9H0K1 whole entry): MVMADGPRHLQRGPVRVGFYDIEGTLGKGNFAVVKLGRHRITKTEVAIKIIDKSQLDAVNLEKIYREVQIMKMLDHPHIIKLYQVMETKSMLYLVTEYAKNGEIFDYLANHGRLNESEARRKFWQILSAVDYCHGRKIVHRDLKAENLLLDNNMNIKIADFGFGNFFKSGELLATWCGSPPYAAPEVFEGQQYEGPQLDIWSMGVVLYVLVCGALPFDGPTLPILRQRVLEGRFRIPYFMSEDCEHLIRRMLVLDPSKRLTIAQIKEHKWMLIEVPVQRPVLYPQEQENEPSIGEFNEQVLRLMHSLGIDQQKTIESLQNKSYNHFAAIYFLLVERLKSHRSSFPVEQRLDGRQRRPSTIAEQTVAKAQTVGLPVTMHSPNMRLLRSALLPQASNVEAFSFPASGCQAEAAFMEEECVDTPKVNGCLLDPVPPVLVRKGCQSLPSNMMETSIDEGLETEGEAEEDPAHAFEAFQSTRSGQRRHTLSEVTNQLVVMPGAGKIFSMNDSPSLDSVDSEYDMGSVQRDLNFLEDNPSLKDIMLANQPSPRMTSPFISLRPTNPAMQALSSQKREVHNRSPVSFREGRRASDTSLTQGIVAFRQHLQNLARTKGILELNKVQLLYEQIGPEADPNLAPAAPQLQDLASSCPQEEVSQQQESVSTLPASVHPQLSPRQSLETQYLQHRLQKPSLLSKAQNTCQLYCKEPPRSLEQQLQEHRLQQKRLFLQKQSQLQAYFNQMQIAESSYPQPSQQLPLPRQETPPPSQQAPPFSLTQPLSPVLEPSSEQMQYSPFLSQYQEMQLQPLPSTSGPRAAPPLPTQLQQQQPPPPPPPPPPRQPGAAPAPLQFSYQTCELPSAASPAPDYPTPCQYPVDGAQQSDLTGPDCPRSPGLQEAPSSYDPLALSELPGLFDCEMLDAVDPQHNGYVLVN
IC50 (SIK3) [nM],IC50 (SIK2) [nM],IC50 (SIK1) [nM],EC50 [1] [nM],Compound
0.01 to 10,0.01 to 10,100 to 500,100 to 1000,"COc1cc(-c2cnc3cc(OC[C@@H]4CCCCN4C)ccn23)cc(OC(F)F)c1C(=O)NC1CC1 [compound 139, N-cyclopropyl-2-(difluoromethoxy)-6-methoxy-4-[7-[[(2S)-1-methyl-2-piperidyl]methoxy]imidazo [1,2-a]pyridin-3-yl]benzamide]"
0.01 to 10,0.01 to 10,10 to 100,100 to 1000,"COc1cc(-c2cnc3cc(OC[C@@H]4CCCN4C)ccn23)cc(OC(F)F)c1C(=O)NC1CC1 [compound 79, N-cyclopropyl-2-(difluoromethoxy)-6-methoxy-4-[7-[[(2S)-1-methylpyrrolidin-2-yl]methoxy]imidazo[1,2-a]pyridin-3-yl]benzamide]"
0.01 to 10,0.01 to 10,10 to 100,0.1 to 100,"COCC1CN(CCOc2ccn3c(-c4cc(OC)c(C(=O)NC5CC5)c(OC(F)F)c4)cnc3c2)CCO1 (centres unmarked) [compound 158, N-cyclopropyl-2-(difluoromethoxy)-6-methoxy-4-[7-[2-[2-(methoxymethyl)morpholin-4-yl]ethoxy]imidazo[1,2-a]pyridin-3-yl]benzamide]"
0.01 to 10,0.01 to 10,10 to 100,100 to 1000,"COc1cc(-c2cnc3cc(OCCN4CCOCC4)ccn23)cc(OC(F)F)c1C(=O)NCC(F)(F)F [compound 230, 2-(difluoromethoxy)-6-methoxy-4-[7-(2-morpholinoethoxy)imidazo [1,2-a]pyridin-3-yl]-N-(2,2,2-trifluoroethyl)benzamide]"
0.01 to 10,0.01 to 10,10 to 100,0.1 to 100,"COc1cc(-c2cnc3cc(OCc4cnco4)ccn23)cc(OC(F)F)c1C(=O)NC1CC1 [compound 33, N-cyclopropyl-2-(difluoromethoxy)-6-methoxy-4-[7-(oxazol-5-ylmethoxy)imidazo[1,2-a]pyridin-3-yl]benzamide]"
0.01 to 10,0.01 to 10,100 to 500,1000 to 5000,"COc1cc(-c2cnc3cc(OCC4(C)CCCCN4)ccn23)cc(OC(F)F)c1C(=O)NC1CC1 (centres unmarked) [compound 172, N-cyclopropyl-2-(difluoromethoxy)-6-methoxy-4-[7-[(2-methyl-2-piperidyl)methoxy]imidazo[1,2-a]pyridin-3-yl]benzamide]"
0.01 to 10,0.01 to 10,10 to 100,100 to 1000,"CNc1cc(-c2cnc3cc(OCCN(C)C)ccn23)cc(OC(F)F)c1C(=O)NC1CC1 [compound 147, N-cyclopropyl-2-(difluoromethoxy)-4-[7-[2-(dimethylamino)ethoxy]imidazo[1,2-a]pyridin-3-yl]-6-(methylamino)benzamide]"
0.01 to 10,0.01 to 10,10 to 100,100 to 1000,"COc1cc(-c2cnc3cc(OC[C@H]4COCCO4)ccn23)cc(OC(F)F)c1C(=O)NC1CC1 [compound 50, N-cyclopropyl-2-(difluoromethoxy)-4-[7-[[(2R)-1,4-dioxan-2-yl]methoxy]imidazo[1,2-a]pyridin-3-yl]-6-methoxy-benzamide]"
0.01 to 10,0.01 to 10,10 to 100,1000 to 5000,"COc1cc(-c2cnc3cc(OCC(C)N)ccn23)cc(OC(F)F)c1C(=O)NC1CC1 (centres unmarked) [compound 138, 4-[7-(2-aminopropoxy)imidazo [1,2-a]pyridin-3-yl]-N-cyclopropyl-2-(difluoromethoxy)-6-methoxy-benzamide]"
0.01 to 10,0.01 to 10,10 to 100,100 to 1000,"COc1cc(-c2cnc3cc(OCCN4CC[C@H](F)C4)ccn23)cc(OC(F)F)c1C(=O)NC1CC1 [Cpd 160, N-cyclopropyl-2-(difluoromethoxy)-4-[7-[2-[(3S)-3-fluoropyrrolidin-1-yl]ethoxy]imidazo[1,2-a]pyridin-3-yl]-6-methoxy-benzamide]"
0.01 to 10,0.01 to 10,10 to 100,100 to 1000,"COc1cc(-c2cnc3cc(OCCN4CCOCC4)ccn23)cc2c1C(=O)NCC2 [Cpd 217, 8-methoxy-6-[7-(2-morpholinoethoxy)imidazo [1,2-a]pyridin-3-yl]-3,4-dihydro-2H-isoquinolin-1-one]"
0.01 to 10,0.01 to 10,10 to 100,100 to 1000,"COc1cc(-c2cnc3cc(OCC4CCO4)ccn23)cc(OC(F)F)c1C(=O)NC1CC1 (centres unmarked) [compound 35, N-cyclopropyl-2-(difluoromethoxy)-6-methoxy-4-[7-(oxetan-2-ylmethoxy)imidazo[1,2-a]pyridin-3-yl]benzamide]"
0.01 to 10,0.01 to 10,100 to 500,100 to 1000,"COc1cc(-c2cnc3cc(OCCN(C(C)C)C(C)C)ccn23)cc(OC(F)F)c1C(=O)NC1CC1 [compound 78, N-cyclopropyl-2-(difluoromethoxy)-4-[7-[2-(diisopropylamino)ethoxy]imidazo[1,2-a]pyridin-3-yl]-6-methoxy-benzamide]"
0.01 to 10,0.01 to 10,> 500,1000 to 5000,"COc1cc(-c2cnc3cc(OCCN(C)C)ccn23)cc2c1C(=O)N(CC#N)CC2 [compound 67, 2-[6-[7-[2-(dimethylamino)ethoxy]imidazo[1,2-a]pyridin-3-yl]-8-methoxy-1-oxo-3,4-dihydroisoquinolin-2-yl]acetonitrile]"
0.01 to 10,0.01 to 10,10 to 100,0.1 to 100,"COc1cc(-c2cnc3cc(OCCCN4CCOCC4)ccn23)cc(OC(F)F)c1C(=O)NC1CC1 [compound 21, N-cyclopropyl-2-(difluoromethoxy)-6-methoxy-4-[7-(3-morpholinopropoxy)imidazo[1,2-a]pyridin-3-yl]benzamide]"
0.01 to 10,0.01 to 10,100 to 500,100 to 1000,"COc1cc(-c2cnc3cc(OCCCN4CCOCC4)ccn23)cc2c1C(=O)N(CC(F)(F)F)CC2 [compound 55, 8-methoxy-6-[7-(3-morpholinopropoxy)imidazo[1,2-a]pyridin-3-yl]-2-(2,2,2-trifluoroethyl)-3,4-dihydro isoquinolin-1-one]"
0.01 to 10,0.01 to 10,10 to 100,0.1 to 100,"COc1cc(-c2cnc3cc(OCC4CCCCO4)ccn23)cc(OC(F)F)c1C(=O)NC1CC1 (centres unmarked) [compound 48, N-cyclopropyl-2-(difluoromethoxy)-6-methoxy-4-[7-(tetrahydropyran-2-ylmethoxy)imidazo[1,2-a]pyridin-3-yl] benzamide]"
